The values below come from ChEMBL document CHEMBL1201862, “PubChem BioAssay data set” (2004).

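Dose response: 5 concentrations. Exposure: 48 h. Format: 96-well plates. Endpoint: linear interpolation; highest concentration if not reached. At the GI50, growth is halved.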 The source made the active and inactive calls. Rule as the data show it: active = GI50 up to about 1.1 µM and inactive = higher.

Test systems include DLD-1; DMS-114; DMS-273; HOP-18; LXFL 529; M19-MEL; T47D; XF498.
Holding throughout (assay): NCI tumour cell line growth inhibition, 48 h

For `CC(=O)Nc1ccc(-c2nnc(SCC(=O)Nc3ccc(Cl)cc3Cl)o2)cc1`, the GI50 in the assay with DLD-1 is 35.1 µM (inactive); in the assay with DMS-114, 15.7 µM (inactive); in the assay with DMS-273 it was 39.5 µM (inactive); in the assay with HOP-18 it was 55.3 µM (inactive); with LXFL 529, 19.3 µM (inactive); in the assay with M19-MEL, 51.9 µM (inactive).

Regarding `COC12C=CC(C=C1C#N)CC2.COC12C=CC(CC1)CC2=O` (configuration not stated), in the assay with T47D, the GI50 was > 100 µM (inactive). Still for that read-out and setting: the result for `CS(=O)(=O)NC12CCC(c3ccccc31)c1ccccc12` reads > 100 µM (inactive); that for `Cc1nn(-c2ccccc2)c2c1C(c1cc3ccccc3nc1Cl)NC(=O)N2` (configuration not stated), 59.2 µM (inactive). Still for that read-out and setting: in the case of `C=C1[C@H]2O[C@H]2[C@@H](OC(C)=O)[C@@]2(C)[C@@H](OC(C)=O)C[C@@H](OC(=O)CCC)[C@@](C)(O)[C@@H]2[C@@H](OC(C)=O)[C@]2(O)[C@@H](C)C(=O)O[C@H]2[C@H]1Cl` it was > 100 µM (inactive).

As to `COC(=O)c1ccc(C(=O)NC(Cc2ccc(Oc3cc(CC(NC(=O)c4ccccc4C(=O)OC)C(=O)OC)ccc3OC)cc2)C(=O)OC)cc1` (configuration not stated), the GI50 in the assay with T47D is > 100 µM (inactive).

Turning to `COc1ccc2oc(=O)c(-c3csc(-c4ccccc4)n3)cc2c1`, in the assay with T47D, the GI50 is > 100 µM (inactive). In the case of `COC(=O)/C(=C/CC(N=C(c1ccccc1)c1ccccc1)C(=O)OC)N=C(c1ccccc1)c1ccccc1` (configuration not stated), the GI50 with DLD-1 was > 100 µM (inactive); in the assay on DMS-114, 15.1 µM (inactive); in the assay on DMS-273, > 100 µM (inactive); with LXFL 529 it was > 100 µM (inactive); in the assay on M19-MEL, > 100 µM (inactive); with XF498, > 100 µM (inactive).

For `CCOC(=O)c1cc(/C=C/C(C)=C/C(=O)OC)oc1-c1ccccc1`, the GI50 in the assay on DLD-1 is 66.7 µM (inactive); in the assay with DMS-114 it was 63.5 µM (inactive); with DMS-273, 92.5 µM (inactive); in the assay on HOP-18, 42.9 µM (inactive); in the assay on M19-MEL it was > 100 µM (inactive); with XF498 it was > 100 µM (inactive). Take `CC1(C)CC(=O)c2c(-c3ccc(Cl)cc3)c(C#N)c(=S)n(C3OC(CO)C(O)C(O)C3O)c2C1` (configuration not stated): the GI50 in the assay on T47D is 18.6 µM (inactive). Still for that read-out and setting: in the case of `CC1=NN(C(=O)CC(=O)Nc2ccccc2Cl)C(=O)C1/N=N/c1ccc(C(=O)O)cc1` (configuration not stated) it was 53.2 µM (inactive); in that of `O=c1[nH]c2ccccc2c(=O)c2cc3ccccc3cc12`, > 100 µM (inactive); in that of `Cc1ncc(COP(=O)(O)O)c(/C=C2\SC(=S)NC2=O)c1O`, > 100 µM (inactive). The same measure, in the same setting: the result for `Cc1c(C(C)C)cc(OCCO)cc1C(C)C` reads 26.9 µM (inactive); that for `O=C1N2CCC[C@H]2CS1(=O)=O`, 13.5 µM (inactive); that for `O=c1[nH]nc(Cc2ccccc2)n1/N=C/c1ccco1`, > 100 µM (inactive). For `O=[N+]([O-])c1cccc(/N=C2\c3ccccc3CN2c2cccc([N+](=O)[O-])c2)c1`, in the assay with T47D, the GI50 is > 100 µM (inactive). With `CCOc1ccc(NC(=O)CC2Sc3ccccc3NC2=O)cc1` (configuration not stated), the GI50 was 88.5 µM (inactive) with DLD-1; > 100 µM (inactive) with DMS-114; 33.4 µM (inactive) in the assay on DMS-273; 20.5 µM (inactive) with HOP-18; > 100 µM (inactive) in the assay with LXFL 529; > 100 µM (inactive) with M19-MEL. As to `COC(=O)CCc1ccc2c(c1)CC1(Cc3ccccc3C1)C2`, the GI50 with T47D is > 100 µM (inactive). Still for that read-out and setting: the result for `CCNCC(=O)Nc1ccc2c(c1)C(=O)c1ccc(NC(=O)CNCC)cc1C2=O` reads 3.86 µM (inactive); that for `CC(=O)SC(C[N+](=O)[O-])c1ccc2c(c1)OCO2` (configuration not stated), 17.1 µM (inactive). Still for that read-out and setting: the result for `C[C@]12CC(c3ccccc3O1)C(C(=O)Nc1nc(C34CC5CC(CC(C5)C3)C4)cs1)C(=O)N2` (some centres not stated) reads > 100 µM (inactive); that for `O=c1cc(-c2ccccc2)oc2c(-c3cc(Cl)cc4c(=O)cc(-c5ccccc5)oc34)cc(Cl)cc12`, 16.4 µM (inactive). For `COC(OC)c1cc2c(cc1C(=O)[C@@]13CCC[C@@H]1NC(=O)O3)OCO2`, the GI50 is 79.6 µM (inactive) in the assay on DLD-1; > 100 µM (inactive) in the assay on DMS-114; > 100 µM (inactive) with DMS-273; > 100 µM (inactive) in the assay on M19-MEL; 84.5 µM (inactive) in the assay with XF498. In the case of `CCOC(=O)c1nc2ccccc2nc1Oc1ccc(F)cc1`, the GI50 in the assay on T47D is > 100 µM (inactive).

Turning to `O=C(O)C(Cc1cc(I)c(O)c(I)c1)C1CCCCC1` (configuration not stated), in the assay on T47D, the GI50 was 29.9 µM (inactive). Regarding `CCOC(=O)c1nnsc1NN=C(C)C`, the GI50 with T47D is > 100 µM (inactive). On the same count and under the same terms, in the case of `C#CCn1ncc2c(SC)ncnc21` it was 19 µM (inactive). Still for that read-out and setting: the result for `CC1(C)OC[C@@]2([C@@H]3CC[C@@H](C3)C2(C)C)N1O` reads > 100 µM (inactive). With `c1csc(-c2ccc(-c3cccc4nsnc34)s2)c1`, in the assay on T47D, the GI50 is 5.32 µM (inactive).

As to `CNc1ccc(OC)cc1S(=O)(=O)c1ccccc1[N+](=O)[O-]`, the GI50 with T47D is 49.8 µM (inactive). In the case of `Cc1cc2c(c3c1c1ccccc1n3C)C(=O)C=CC2=O`, the GI50 was 6.32 µM (inactive) with DLD-1; 22.5 µM (inactive) in the assay on DMS-273; 5.6 µM (inactive) in the assay with LXFL 529; 13 µM (inactive) in the assay with T47D; 17.7 µM (inactive) in the assay with XF498. For the compound `COc1cc2c(cc1OC)C1c3ccccc3CCCN1CC2` (configuration not stated), the GI50 in the assay on T47D is > 100 µM (inactive).

Take `N#CC(NNC(=O)Cc1ccccc1)c1c(O)ccc2ccccc12` (configuration not stated): the GI50 in the assay with DLD-1 was 3.96 µM (inactive); in the assay with DMS-114 it was 2.08 µM (inactive); in the assay with DMS-273 it was 3.68 µM (inactive); in the assay on HOP-18, 4.36 µM (inactive); with M19-MEL it was 2.71 µM (inactive); in the assay on T47D it was 3.45 µM (inactive). As for `O=C(Cc1ccccc1)NN1C(=O)/C(=C\c2cccc([N+](=O)[O-])c2)S/C1=N\c1ccccc1`, the GI50 in the assay with T47D was > 100 µM (inactive).

Regarding `CCCn1c2ccccc2c2ccc3c(c21)C(=O)C=CC3=O`, in the assay on T47D, the GI50 is 2 µM (inactive). `Nc1nc(N)c(N=Nc2ccc([As](=O)(O)O)c(O)c2)c(N)n1`: in the assay with T47D, the GI50 is > 25.2 µM (inactive). The same measure, in the same setting: in the case of `CSc1c(C#N)c(S)n(-c2ccc(Cl)cc2)c(=O)c1C#N` it was 47.5 µM (inactive); in that of `O=C(O)CCc1ccc2c(c1)C(=O)CC2`, 93.1 µM (inactive). In the case of `CC(NC1=CC(=O)c2ncccc2C1=O)C(O)c1ccccc1` (configuration not stated), the GI50 with T47D is 21.5 µM (inactive).

Turning to `C=CC/C(C(=O)OC)=C(/C(=O)OC)N(CCC)CCC`, the GI50 in the assay with T47D is > 100 µM (inactive). For `N=C(N)Nc1ccc(CC(N)C(=O)O)cc1` (configuration not stated), in the assay on T47D, the GI50 is > 12.5 µM (inactive). For `Cc1ccc(S(=O)(=O)OC2C3OC(C)(C)OC3OC2C(c2cc(O)c3c(c2O)C(=O)c2ccccc2C3=O)c2cc(O)c3c(c2O)C(=O)c2ccccc2C3=O)cc1` (configuration not stated), the GI50 in the assay on T47D was > 10 µM (inactive). Consider `Cc1cn(C2CC(N=[N+]=[N-])C(CO)O2)c(=O)n(CCCCO)c1=O` (configuration not stated), for which the GI50 in the assay with T47D is > 100 µM (inactive). As for `CSc1ccsc1-c1sc(-c2cc(SC)c(-c3sc(-c4cc(SC)c(-c5sccc5SC)s4)cc3SC)s2)cc1SC`, the GI50 in the assay with T47D is 28.2 µM (inactive). Regarding `Nc1nccc(Nc2ccc(S(N)(=O)=O)cc2)n1`, the GI50 in the assay on T47D is > 100 µM (inactive). Same read-out and setting: the result for `O=C1OC2(CCCCC2)C(Oc2ccc(Cl)cc2)=C1F` reads 37.2 µM (inactive); that for `CC(=O)c1c(C)cc2cccc(OC3OC(CO)C(O)C(O)C3O)c2c1O.CC1OC(O)C(O)C(O)C1O` (configuration not stated), > 100 µM (inactive). Still for that read-out and setting: in the case of `COc1ccc(/C=C/C(=O)/C=C/c2ccc(OC)cc2OC)c(OC)c1` it was 4.47 µM (inactive).
